Source: US20260295053A1, “COMPOUNDS FOR DEGRADATION AND INHIBITION OF KRAS (G12D) PROTEIN” (Shenzhen Ionova Life Science Co., Ltd., priority 2023, published 2026)

Tests used:
KRAS (G12D) = target: T1, KRAS (G12D) (Homo sapiens, UniProt P01116, G12D); experiment: KRAS (G12D) cellular degradation assay in AsPC-1 cells; type: cell-based; details: 24 hours, antibody fluorescence (Odyssey CLX), DC50 half-maximal degradation concentration
T1 construct: in-cell western with KRAS G12D antibody after 24 h
T1 sequence (P01116 1-188 isoform P01116-2 G12D): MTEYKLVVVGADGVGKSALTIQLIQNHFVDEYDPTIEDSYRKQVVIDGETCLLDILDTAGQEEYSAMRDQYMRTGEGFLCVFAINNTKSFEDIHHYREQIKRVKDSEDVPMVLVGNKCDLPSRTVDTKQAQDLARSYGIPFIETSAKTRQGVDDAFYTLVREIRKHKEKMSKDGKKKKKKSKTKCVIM
Outline: (§1)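 Degradation: 22,000 cells/well grown to ~90% confluency, 24 h compound, fixed/permeabilised, anti-KRAS G12D + β-actin antibodies, near-IR fluorescence, DC50. Proliferation: 3,500 cells/well overnight, 6 d compound, CellTiter Glo luminescence, IC50. Dosing […]–1.5 nM final, 1:3 steps.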

AsPC-1 cells = experiment: AsPC-1 cell proliferation assay (CellTiter Glo); type: cell-based; details: 6 days
Outline: as §1

What does the source list for `CCn1nccc1-c1ccc([C@@H](NC(=O)[C@@H]2C[C@@H](O)CN2C(=O)[C@H](C(C)C)n2cc(-c3ccc(COc4c(-c5c(C)c(F)cc6[nH]ncc56)c(C5CC5)cc5c(N6C[C@@H]7C[C@H]6CN7)nc(OC6CC7(CCOC7)C6)nc45)cc3)nn2)[C@H](C)O)cc1` (stereo partly drawn) [Example 114, (2S,4R)-1-((2S)-2-(4-(4-(((2-((6-oxaspiro[3.4]octan-2-yl)oxy)-4-((1S,4S)-2,5-diazabicyclo[2.2.1]heptan-2-yl)-6-cyclopropyl-7-(6-fluoro-5-methyl-1H-indazol-4-yl)quinazolin-8-yl)oxy)methyl)phenyl)-1H-1,2,3-triazol-1-yl)-3-methylbutanoyl)-N-((1R,2S)-1-(4-(1-ethyl-1H-pyrazol-5-yl)phenyl)-2-hydroxypropyl)-4-hydroxypyrrolidine-2-carboxamide]?
DC50 (KRAS (G12D)): < 10 nM; IC50 (AsPC-1 cells; Homo sapiens, ASPC1, 144 h): < 10 nM

How did the DC50 (KRAS (G12D)) turn out when `CCn1nccc1-c1ccc([C@@H](NC(=O)[C@@H]2C[C@@H](O)CN2C(=O)[C@H](C(C)C)n2cc(-c3ccc(COc4c(-c5c(C)c(F)cc6[nH]ncc56)c(C5CC5)cc5c(N6C[C@@H]7C[C@H]6CN7)nc(OC6CC7COCC7C6)nc45)cc3)nn2)[C@H](C)O)cc1` (stereo partly drawn) [Example 115, (2S,4R)-1-((2S)-2-(4-(4-(((4-((1S,4S)-2,5-diazabicyclo[2.2.1]heptan-2-yl)-6-cyclopropyl-7-(6-fluoro-5-methyl-1H-indazol-4-yl)-2-((hexahydro-1H-cyclopenta[c]furan-5-yl)oxy)quinazolin-8-yl)oxy)methyl)phenyl)-1H-1,2,3-triazol-1-yl)-3-methylbutanoyl)-N-((1R,2S)-1-(4-(1-ethyl-1H-pyrazol-5-yl)phenyl)-2-hydroxypropyl)-4-hydroxypyrrolidine-2-carboxamide] was run?
The DC50 was < 10 nM.

And the IC50 (AsPC-1 cells; Homo sapiens, ASPC1, 144 h)?
The IC50 was < 10 nM.

Which DC50 (KRAS (G12D)) does the source give for `CO[C@@H](C)COc1nc(N2C[C@@H]3C[C@H]2CN3)c2cc(C3CC3)c(-c3c(C)c(F)cc4[nH]ncc34)c(OCc3ccc(-c4cn([C@H](C(=O)N5C[C@H](O)C[C@H]5C(=O)N[C@H](C#Cc5cccc6nn(C)cc56)CO)C(C)C)nn4)cc3)c2n1` [Example 116, (2S,4R)-1-((2S)-2-(4-(4-(((4-((1S,4S)-2,5-diazabicyclo[2.2.1]heptan-2-yl)-6-cyclopropyl-7-(6-fluoro-5-methyl-1H-indazol-4-yl)-2-((S)-2-methoxypropoxy)quinazolin-8-yl)oxy)methyl)phenyl)-1H-1,2,3-triazol-1-yl)-3-methylbutanoyl)-4-hydroxy-N—((R)-1-hydroxy-4-(2-methyl-2H-indazol-4-yl)but-3-yn-2-yl)pyrrolidine-2-carboxamide] here?
The DC50 was < 10 nM.

And the IC50 (AsPC-1 cells; Homo sapiens, ASPC1, 144 h)?
Its IC50 is < 10 nM.

What does the source list for `CCn1nccc1-c1ccc([C@@H](NC(=O)[C@@H]2C[C@@H](O)CN2C(=O)[C@H](C(C)C)n2cc(-c3ccc(COc4c(-c5c(C)c(F)cc6[nH]ncc56)c(C5CC5)cc5c(N6C[C@@H]7C[C@H]6CN7)nc(OCC(OC)C(F)F)nc45)cc3)nn2)[C@H](C)O)cc1` (stereo partly drawn) [Example 119, (2S,4R)-1-((2S)-2-(4-(4-(((4-((1S,4S)-2,5-diazabicyclo[2.2.1]heptan-2-yl)-6-cyclopropyl-2-(3,3-difluoro-2-methoxypropoxy)-7-(6-fluoro-5-methyl-1H-indazol-4-yl)quinazolin-8-yl)oxy)methyl)phenyl)-1H-1,2,3-triazol-1-yl)-3-methylbutanoyl)-N-((1R,2S)-1-(4-(1-ethyl-1H-pyrazol-5-yl)phenyl)-2-hydroxypropyl)-4-hydroxypyrrolidine-2-carboxamide]?
DC50 (KRAS (G12D)): < 10 nM; IC50 (AsPC-1 cells; Homo sapiens, ASPC1, 144 h): < 10 nM

For `CCn1nccc1-c1ccc([C@@H](NC(=O)[C@@H]2C[C@@H](O)CN2C(=O)[C@H](C(C)C)n2cc(-c3ccc(COc4c(-c5c(C)c(F)cc6[nH]ncc56)c(C5CC5)cc5c(N6C[C@@H]7C[C@H]6CN7)nc(O[C@H]6CC[C@H](OC)CC6)nc45)cc3)nn2)[C@H](C)O)cc1` [Example 121, (2S,4R)-1-((2S)-2-(4-(4-(((4-((1S,4S)-2,5-diazabicyclo[2.2.1]heptan-2-yl)-6-cyclopropyl-7-(6-fluoro-5-methyl-1H-indazol-4-yl)-2-(((1r,4S)-4-methoxycyclohexyl)oxy)quinazolin-8-yl)oxy)methyl)phenyl)-1H-1,2,3-triazol-1-yl)-3-methylbutanoyl)-N-((1R,2S)-1-(4-(1-ethyl-1H-pyrazol-5-yl)phenyl)-2-hydroxypropyl)-4-hydroxypyrrolidine-2-carboxamide], which DC50 (KRAS (G12D)) is on record?
Its DC50 is < 10 nM.

What about the IC50 (AsPC-1 cells; Homo sapiens, ASPC1, 144 h) of the same compound?
Its IC50 is < 10 nM.

For `CCn1nccc1-c1ccc([C@@H](NC(=O)[C@@H]2C[C@@H](O)CN2C(=O)[C@H](C(C)C)n2cc(-c3ccc(COc4c(-c5c(C)c(F)cc6[nH]ncc56)c(C5CC5)cc5c(N6C[C@@H]7C[C@H]6CN7)nc(OCC(OC)C(F)F)nc45)cc3)nn2)[C@H](C)O)cc1` (stereo partly drawn) [Example 122, (2S,4R)-1-((2S)-2-(4-(4-(((4-((1S,4S)-2,5-diazabicyclo[2.2.1]heptan-2-yl)-6-cyclopropyl-2-(3,3-difluoro-2-methoxypropoxy)-7-(6-fluoro-5-methyl-1H-indazol-4-yl)quinazolin-8-yl)oxy)methyl)phenyl)-1H-1,2,3-triazol-1-yl)-3-methylbutanoyl)-N-((1R,2S)-1-(4-(1-ethyl-1H-pyrazol-5-yl)phenyl)-2-hydroxypropyl)-4-hydroxypyrrolidine-2-carboxamide], which DC50 (KRAS (G12D)) is on record?
Its DC50 is < 10 nM.

And the IC50 (AsPC-1 cells)?
The IC50 was < 10 nM.

What does the source list for `CCn1nccc1-c1ccc([C@@H](NC(=O)[C@@H]2C[C@@H](O)CN2C(=O)[C@H](C(C)C)n2cc(-c3ccc(COc4c(-c5c(C)c(F)cc6[nH]ncc56)c(C5CC5)cc5c(N6C[C@@H]7C[C@H]6CN7)nc(OC6CCC(OC)CC6)nc45)cc3)nn2)[C@@H](C)O)cc1` (stereo partly drawn) [Example 127, (2S,4R)-1-((2S)-2-(4-(4-(((4-((1S,4S)-2,5-diazabicyclo[2.2.1]heptan-2-yl)-6-cyclopropyl-7-(6-fluoro-5-methyl-1H-indazol-4-yl)-2-((4-methoxycyclohexyl)oxy)quinazolin-8-yl)oxy)methyl)phenyl)-1H-1,2,3-triazol-1-yl)-3-methylbutanoyl)-N-((1R,2R)-1-(4-(1-ethyl-1H-pyrazol-5-yl)phenyl)-2-hydroxypropyl)-4-hydroxypyrrolidine-2-carboxamide]?
DC50 (KRAS (G12D)): < 10 nM; IC50 (AsPC-1 cells; Homo sapiens, ASPC1, 144 h): < 10 nM

`CCn1nccc1-c1ccc([C@@H](NC(=O)[C@@H]2C[C@@H](O)CN2C(=O)[C@H](C(C)C)n2cc(-c3ccc(COc4c(-c5c(C)c(F)cc6[nH]ncc56)c(C5CCC5)cc5c(N6C[C@@H]7C[C@H]6CN7)nc(OC[C@H](C)OC)nc45)cc3)nn2)[C@@H](C)O)cc1` [Example 128, (2S,4R)-1-((2S)-2-(4-(4-(((4-((1S,4S)-2,5-diazabicyclo[2.2.1]heptan-2-yl)-6-cyclobutyl-7-(6-fluoro-5-methyl-1H-indazol-4-yl)-2-((S)-2-methoxypropoxy)quinazolin-8-yl)oxy)methyl)phenyl)-1H-1,2,3-triazol-1-yl)-3-methylbutanoyl)-N-((1R,2R)-1-(4-(1-ethyl-1H-pyrazol-5-yl)phenyl)-2-hydroxypropyl)-4-hydroxypyrrolidine-2-carboxamide] was tested. Which DC50 (KRAS (G12D)) did it give?
The DC50 was 10 to 100 nM.

And the IC50 (AsPC-1 cells; Homo sapiens, ASPC1, 144 h)?
Its IC50 is < 10 nM.

Which DC50 (KRAS (G12D)) does the source give for `Cc1ncsc1-c1ccc([C@H](CO)NC(=O)[C@@H]2C[C@@H](O)CN2C(=O)[C@H](C(C)C)n2cc(-c3ccc(COc4c(-c5c(C)c(F)cc6[nH]ncc56)c(C5CC5)cc5c(N6C[C@@H]7C[C@H]6CN7)nc(OC6CC7(COC7)C6)nc45)cc3)nn2)cc1` [Example 129, (2S,4R)-1-((2S)-2-(4-(4-(((2-((2-oxaspiro[3.3]heptan-6-yl)oxy)-4-((1S,4S)-2,5-diazabicyclo[2.2.1]heptan-2-yl)-6-cyclopropyl-7-(6-fluoro-5-methyl-1H-indazol-4-yl)quinazolin-8-yl)oxy)methyl)phenyl)-1H-1,2,3-triazol-1-yl)-3-methylbutanoyl)-4-hydroxy-N—((R)-2-hydroxy-1-(4-(4-methylthiazol-5-yl)phenyl)ethyl)pyrrolidine-2-carboxamide] here?
The DC50 was < 10 nM.

What about the IC50 (AsPC-1 cells; Homo sapiens, ASPC1, 144 h) of the same compound?
The IC50 was < 10 nM.

`CCn1nccc1-c1ccc([C@@H](NC(=O)[C@@H]2C[C@@H](O)CN2C(=O)[C@H](C(C)C)n2cc(-c3ccc(COc4c(-c5c(C)c(F)cc6[nH]ncc56)c(C5CC5)cc5c(N6C[C@@H]7C[C@H]6CN7)nc(OC6CCC7(CC6)COC7)nc45)cc3)nn2)[C@@H](C)O)cc1` [Example 130, (2S,4R)-1-((2S)-2-(4-(4-(((2-((2-oxaspiro[3.5]nonan-7-yl)oxy)-4-((1S,4S)-2,5-diazabicyclo[2.2.1]heptan-2-yl)-6-cyclopropyl-7-(6-fluoro-5-methyl-1H-indazol-4-yl)quinazolin-8-yl)oxy)methyl)phenyl)-1H-1,2,3-triazol-1-yl)-3-methylbutanoyl)-N-((1R,2R)-1-(4-(1-ethyl-1H-pyrazol-5-yl)phenyl)-2-hydroxypropyl)-4-hydroxypyrrolidine-2-carboxamide] was tested. Which DC50 (KRAS (G12D)) did it give?
Its DC50 is < 10 nM.

And the IC50 (AsPC-1 cells; Homo sapiens, ASPC1, 144 h)?
Its IC50 is < 10 nM.

How did the DC50 (KRAS (G12D)) turn out when `CCn1nccc1-c1ccc([C@@H](NC(=O)[C@@H]2C[C@@H](O)CN2C(=O)[C@H](C(C)C)n2cc(-c3ccc(COc4c(-c5c(C)c(F)cc6[nH]ncc56)c(C5CC5)cc5c(N6C[C@@H]7C[C@H]6CN7)nc(O[C@H]6C[C@H](OC)C6)nc45)cc3)nn2)[C@@H](C)O)cc1` [Example 131, (2S,4R)-1-((2S)-2-(4-(4-(((4-((1S,4S)-2,5-diazabicyclo[2.2.1]heptan-2-yl)-6-cyclopropyl-7-(6-fluoro-5-methyl-1H-indazol-4-yl)-2-((1r,3S)-3-methoxycyclobutoxy)quinazolin-8-yl)oxy)methyl)phenyl)-1H-1,2,3-triazol-1-yl)-3-methylbutanoyl)-N-((1R,2R)-1-(4-(1-ethyl-1H-pyrazol-5-yl)phenyl)-2-hydroxypropyl)-4-hydroxypyrrolidine-2-carboxamide] was run?
The DC50 was < 10 nM.

And the IC50 (AsPC-1 cells; Homo sapiens, ASPC1, 144 h)?
The IC50 was < 10 nM.
